# Experimental data published in patent US9034846B2, “Use of cyclodextrin for treatment and prevention of bronchial inflammatory diseases” (UNIVERSITE DE LIEGE, priority 2004, dated 2015).
# How the values were obtained:
# Eotaxin = Eotaxin ELISA in lung protein extracts, OVA mouse model; type: in vivo; conditions: all doses tested, compared to placebo; FIG. 7a
# Protocol: (§1) In order to study modulation of airway inflammation, males BALB/c mice of 6 to 8 weeks old were sensitized by intraperitoneal injection of 10 μg ovalbumin (OVA) (Sigma Aldrich, Schnelldorf, Germany) emulsified in aluminum hydroxyde (AlumInject; Perbio, Erembodegem, Belgium) on days 1 and 8. Mice were subsequently exposed to allergens by daily inhalation of an aerosol of OVA 1%, for 30 minutes, generated by ultrasonic nebulizer (Devilbiss 2000), from day 21 to 27. Mice were subjected to inhalation of β-CD, HP-β-CD HP 1, 7.5, 50 mM and HP-β-CD 50 mM 30 minutes before OVA inhalation. Mice were sacrificed performed on day 28 as previously reported by Cataldo and al in Am. J. Pathol 2002; 161(2):491-498.
# The left lung was crushed using a Mikro-Dismembrator (Braun Biotech International, Gmbh Melsungen, Germany). For proteins extraction, the crushed lung tissue was incubated overnight at 4° C. in a solution containing 2M urea, 1M NaCl and 50 mM Tris (pH 7.5) and subsequently centrifuged 15 minutes at 16.000×g. […]
# Eotaxin and IL-13 levels were assessed using commercial ELISAs (R&D systems, Abingdon, UK). Eotaxin was measured by incubation in a wheel coated with a primary antibody specifically dedicated to the recognition of the protein and after rinsing, a second antibody against eotaxin, coupled with horse radish peroxydase was used to quantify the amounts of eotaxin in the solution
# CXCL-1 [1] = test: CXCL-1 ELISA in lung protein extracts, LPS-induced inflammation model; type: in vivo, mouse; conditions: aerosolized 15 mM, vs placebo, FIG. 13
# Protocol: In lipopolysaccharide (LPS)-induced inflammation model, mice were exposed to 3 μg LPS diluted in 100 μl of PBS or PBS (phosphate buffer saline) only administered by direct tracheal instillations at day 1 and 5 of the protocol. Mice were daily exposed either to aerosolized hydroxypropyl-beta-cyclodextrin (15 mM) or PBS for 30 min from day 0 to 5 (6 hours after LPS or sham exposure at days 1 and 5). Mice were sacrificed at day 6.
# (§2) After sacrifice, thorax was opened and the right lungs were excised and snap frozen in liquid nitrogen for protein extraction. The left lung was insufflated at constant pressure with 4% paraformaldehyde and embedded in paraffin for further histological analysis. A peribronchial inflammation score was applied on each hematoxylin-eosin stained slide as previously reported (Cataldo et al Am J Pathol 2002). A value from 0 to 2 was adjudged to each bronchus. Score of 0 corresponded to bronchi without inflammation; score 1 to occasional mononuclear cells observed around bronchi, and score 2 to 1 to 5 layer(s) of inflammatory cells around bronchi. Six bronchi per mice were counted and statistical analysis was performed by using GraphPad Program. […] ELISA for CXCL-1 on lung protein extracts were assessed using antibodies from R&D Systems and the R&D Duoset® Elisa Development kit (R&D Systems, Minneapolis, Minn., USA).
# OVA exposed mice [2] = test: Peribronchial eosinophil infiltration (Congo Red), OVA mouse model; type: in vivo; conditions: FIG. 3
# Protocol: as §1
# (§3) After BAL, the thorax was opened and the left main bronchus was clamped. The left lung was excised and frozen immediately at −80° C. for protein and mRNA extraction. The right lung was infused with 4 ml paraformaldehyde 4%, embedded in paraffin and used for histology. Sections of 5 μm thickness were cut off from paraffin and were stained with haematoxylin-eosin. The extent of peribronchial inflammation was estimated by a score calculated by quantification of peribronchial inflammatory cells, as previously described by Cataldo D D, Tournoy K G, Vermaelen K et al. in Am J Pathol 2002; 161(2):491-498. A value of 0 was adjudged when no inflammation was detectable, a value of 1 when there was occasionally inflammatory cells, a value of 2 when most bronchi were surrounded by a thin layer (1 to 5 cells) of inflammatory cells and a value of 3 when most bronchi were surrounded by a thick layer (>5 cells) of inflammatory cells. Since 5-7 randomly selected tissue sections per mouse were scored, inflammation scores are expressed as a mean value and can be compared between groups. After Congo Red staining, the eosinophilic infiltration in the airway walls was quantified by manual count and reported to the perimeter of epithelial basement membrane defining an eosinophilic inflammatory score.
# CXCL-1 [3] = test: CXCL-1 ELISA in lung protein extracts, OVA-induced inflammation model; type: in vivo, mouse; conditions: aerosolized 15 mM, vs placebo-exposed mice, FIG. 12
# Protocol: In ovalbumin (OVA)-induced inflammation model, mice were immunized by intraperitoneal injection of OVA (10 μg) (Sigma Aldrich, Schnelldorf, Germany) and aluminium hydroxyde on days 0 and 7. From days 21 to 25, mice were exposed to inhalation of 1% OVA or PBS (phosphate buffer saline) for 30 minutes. Airway hyperresponsiveness was measured on day 26 before sacrifice. Mice were either exposed to aerosolized hydroxypropyl-beta-cyclodextrin (15 mM) or PBS for […] 6 hours before allergen exposure.
# as §2, with “Score of 0 corresponded to bronchi without inflammation; score 1 to occasional mononuclear cells observed around bronchi, and score 2 to 1 to 5 layer(s) of inflammatory cells around bronchi.” left out
# OVA exposed mice [4] = test: Peribronchial inflammation score by histology, OVA mouse model; type: in vivo; conditions: 1, 7.5 and 50 mM, compared to placebo; FIG. 2
# Protocol: as §1, with “Mice were subjected to inhalation of β-CD, HP-β-CD HP 1, 7.5, 50 mM and HP-β-CD 50 mM 30 minutes before OVA inhalation.” left out
# as §3
substance,measurement,setting,value
hydroxypropyl-βcyclodextrin [HP-β-CD],levels of eotaxin in lung protein extracts,Eotaxin,decrease
same,Levels of CXCL-1 in lung protein extracts,CXCL-1 [1],significantly decreased
same,peribronchial eosinophil infiltration,OVA exposed mice [2]; 50 mM,decrease reached statistical significance
same,peribronchial eosinophil infiltration,OVA exposed mice [2]; 1 and 7.5 mM,decrease reached statistical significance
same,Levels of CXCL-1 in lung protein extracts,CXCL-1 [3],significantly decreased
same,peribronchial inflammation score,OVA exposed mice [4],decreased inflammation score
